Measured values as given in BindingDB's records for doi:10.1002/cbic.200400084 (Laboratorium FÜR Organische Chemie, 2004).

Biological target: T1, Catechol O-methyltransferase (Rattus norvegicus, UniProt P22734)
T1 sequence (P22734 whole entry): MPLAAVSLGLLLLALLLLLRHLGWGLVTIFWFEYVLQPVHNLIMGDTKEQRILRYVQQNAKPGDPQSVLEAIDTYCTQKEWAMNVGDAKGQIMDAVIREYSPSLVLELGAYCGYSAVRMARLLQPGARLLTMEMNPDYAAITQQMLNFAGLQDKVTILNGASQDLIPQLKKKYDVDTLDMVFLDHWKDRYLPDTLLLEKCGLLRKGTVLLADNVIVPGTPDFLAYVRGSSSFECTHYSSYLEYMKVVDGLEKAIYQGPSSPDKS
Assay: Radiochemical Assay
Details: 37 °C
Procedure: The binding affinity of the inhibitors towards Catechol O-methyltransferase in the presence of Mg2+ ions were determined by using a radiochemical assay.

SMILES	IC50
Cc1ccc(-c2cc(O)c(O)c(C(=O)NC/C=C/[C@H]3O[C@@H](n4cnc5c(N)ncnc54)[C@H](O)[C@@H]3O)c2)cc1 [Bi-substrate Inhibitor, 1c]	23 nM
Nc1ncnc2c1ncn2[C@@H]1O[C@H](/C=C/CNC(=O)c2cccc(O)c2O)C(O)[C@H]1O (stereo partly drawn) [Bi-substrate Inhibitor, 1t]	2600 nM
Nc1ncnc2c1ncn2[C@@H]1O[C@H](/C=C/CNC(=O)c2cc(C(=O)c3ccncc3)cc(O)c2O)[C@@H](O)[C@H]1O [Bi-substrate Inhibitor, 1l]	42 nM
Cc1ccc(S(=O)(=O)c2cc(O)c(O)c(C(=O)NC/C=C/[C@H]3O[C@@H](n4cnc5c(N)ncnc54)[C@H](O)C3O)c2)cc1 (stereo partly drawn) [Bi-substrate Inhibitor, 1p]	213 nM
Cc1ccc(C(=O)c2cc(O)c(O)c(C(=O)NC/C=C/[C@H]3O[C@@H](n4cnc5c(N)ncnc54)[C@H](O)[C@@H]3O)c2)cc1 [Bi-substrate Inhibitor, 1i]	34 nM
Nc1ncnc2c1ncn2[C@@H]1O[C@H](/C=C/CNC(=O)c2cc(C(F)(F)F)cc(O)c2O)[C@@H](O)[C@H]1O [Bi-substrate Inhibitor, 1j]	35 nM
Nc1ncnc2c1ncn2[C@@H]1O[C@H](/C=C/CNC(=O)c2cc(C(=O)C(F)(F)F)cc(O)c2O)[C@@H](O)[C@H]1O [Bi-substrate Inhibitor, 1k]	39 nM
Nc1ncnc2c1ncn2[C@@H]1O[C@H](/C=C/CNC(=O)c2cc(Br)cc(O)c2O)[C@@H](O)[C@H]1O [Bi-substrate Inhibitor, 1f]	28 nM
Nc1ncnc2c1ncn2[C@@H]1O[C@H](/C=C/CNC(=O)c2cc(-c3ccncc3)cc(O)c2O)[C@@H](O)[C@H]1O [Bi-substrate Inhibitor, 1d]	23 nM
Nc1ncnc2c1ncn2[C@@H]1O[C@H](/C=C/CNC(=O)c2cc(C(=O)C3CCCCC3)cc(O)c2O)[C@@H](O)[C@H]1O [Bi-substrate Inhibitor, 1n]	83 nM
Nc1ncnc2c1ncn2[C@@H]1O[C@H](/C=C/CNC(=O)c2cc(Cl)cc(O)c2O)[C@@H](O)[C@H]1O [Bi-substrate Inhibitor, 1m]	44 nM
CN(C)C(=O)/C=C/c1cc(O)c(O)c(C(=O)NC/C=C/[C@H]2O[C@@H](n3cnc4c(N)ncnc43)[C@H](O)[C@@H]2O)c1 [Bi-substrate Inhibitor, 1o]	97 nM
N#Cc1cc(O)c(O)c(C(=O)NC/C=C/[C@H]2O[C@@H](n3cnc4c(N)ncnc43)[C@H](O)[C@@H]2O)c1 [Bi-substrate Inhibitor, 1h]	29 nM
Nc1ncnc2c1ncn2[C@@H]1O[C@H](/C=C/CNC(=O)c2cc([N+](=O)[O-])cc(O)c2O)[C@@H](O)[C@H]1O [Bi-substrate Inhibitor, 1a]	9 nM
CN(C)C(=O)c1cc(O)c(O)c(C(=O)NC/C=C/[C@H]2O[C@@H](n3cnc4c(N)ncnc43)[C@H](O)C2O)c1 (stereo partly drawn) [Bi-substrate Inhibitor, 1s]	2000 nM
Nc1ncnc2c1ncn2[C@@H]1O[C@H](/C=C/CNC(=O)c2cc(-c3nccs3)cc(O)c2O)[C@@H](O)[C@H]1O [Bi-substrate Inhibitor, 1e]	27 nM
Cc1ccc(Cc2cc(O)c(O)c(C(=O)NC/C=C/[C@H]3O[C@@H](n4cnc5c(N)ncnc54)[C@H](O)C3O)c2)cc1 (stereo partly drawn) [Bi-substrate Inhibitor, 1q]	608 nM
Nc1ncnc2c1ncn2[C@@H]1O[C@H](/C=C/CNC(=O)c2cc(-c3ccc(F)cc3)cc(O)c2O)[C@@H](O)[C@H]1O [Bi-substrate Inhibitor, 1b]	21 nM
